Test results reported in publication PMC6222558, “Synthesis and Evolution of Berberine Derivatives as a New Class of Antiviral Agents against Enterovirus 71 through the MEK/ERK Pathway and Autophagy” (Molecules : A Journal of Synthetic Chemistry and Natural …, 2018).

Tests used:
[1] = test system: EV71 JS-52 strain (genotype C4); test: CPE inhibition assay for anti-EV71, JS-52 strain; type: cell-based, enterovirus 71 (EV71); details: Enterovirus A, EV71; Vero cells; CPE; calculated on the organic part; n = 3; read-out: JS-52 Strain IC50
Summary of the method: (§1)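 Vero cells infected with 100 × TCID50 EV71 for 1 h at 37 °C in serum-free medium, unbound virus removed, then compounds added for 72 h. IC50 from inhibition of virus-induced CPE; TC50 as concentration giving 50% CPE at 72 h, with selectivity index; crystal violet staining for imaging.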

[2] = test system: four different genotype enterovirus 71 (EV71) strains; test: CPE assay, summary over the four EV71 strains; type: cell-based; details: Enterovirus A, EV71, read-out: IC50 values against all tested EV71 strains
Procedure: Thus, all newly synthesized BBR analogues were screened for their anti-EV71 potencies in African green monkey kidney (Vero) cells taking BBR as the positive control. EV71 strains used in the present study include different genotype strains, such as H strain (VR-1432, genotype C2), BrCr strain (VR-1775, genotype A), and JS-52 and SHZH98 (genotype C4). The potency against EV71 strains above mentioned of each tested compound was evaluated by the combination of its IC50 and selectivity index (SI) value as the important therapeutic indication.
(§2) The anti-EV71 activities of all tested compounds were detected by the virus-induced CPE assay. Briefly, cells (3 × 10^4 cells/well) were plated into 96-well culture plates and incubated for 16 h. Then, remove the medium and infected cells with EV71 of 100 × TCID50 (50% tissue culture infective doses) in serum-free medium for 1 h at 37 °C. After that, the unbound viruses were removed and various concentrations of tested compounds were supplemented for incubation of another 72 h. […] TC50 defined as the concentration that leads to the 50% of CPE which determined by the same method in 72 h. In addition, the cells were stained the cells were colored with 0.5% crystal violet in 20% ethanol for 15 min at room temperature and the cells were imaged after rinsed with PBS.

[3] = test system: EV71-induced autophagy (AKT, JNK, PI3KIII, LC3II, Beclin-1); test: Western blot of autophagy proteins in EV71-infected Vero cells; type: cell-based, African green monkey; details: EV71 H, MOI = 0.1; 24 h treatment
Source text: EV71 infection triggers autophagy, which provides a support for EV71 replication. Both JNK and PI3KIII proteins as upstream activators, play important roles in regulating autophagy, and inhibition of corresponding signaling pathway could down-regulate autophagy. Otherwise, AKT, as an inhibitor of autophagy factor, could inhibit autophagy with its activation. To further understand whether 2d still affected autophagy after structure modification, the inhibition of activation AKT and phosphorylation of JNK and PI3KIII proteins were also carried out using BBR as a reference.
(§3) Cells were lysed in the M-PER mammalian protein extraction reagent (Thermo, Rockford, IL, USA) containing halt protease inhibitor single-use cocktail (Thermo). The protein concentration was determined by BCA Protein Assay Kit (Thermo). Equal amount of samples (15 μg proteins) were denatured and applied to sodium dodecyl sulfate-polyacrylamide gel electrophoresis (SDS-PAGE), and then electrophoresis products were transferred to a polyvinylidenefluoride (PVDF) film and blocked by 5% (w/v) milk or BSA at room temperature. An hour later, PVDF membranes were incubated at room temperature with specific primary antibody. After a standard washing, membranes were incubated with horse radish peroxidase (HRP)-labeled secondary antibody. The signals were detected using ECL detection kit (GE Healthcare Life Sciences, Pittsburgh, PA, USA). The primary antibodies used in the experiment included β-actin, p-p44/p42 MAPK, p44/p42 MAPK, p-MEK, MEK, p-JNK, JNK, p-AKT, AKT, PI3KIII, LC3B, Beclin-1 (Cell Signaling Technology, Danvers, MA, USA), and EV71-VP1 (Abnova, Taibei, China). HRP-labeled secondary antibodies included goat anti-rabbit and anti-mouse HRP-labeled antibodies (Cell Signaling Technology).
Figure 4 Compound 2d inhibits EV71-induced autophagy. Vero cells were mock-infected or infected with EV71 (H, MOI = 0.1) for 1 h. The cells were then treated with compound 2d and BBR for 24 h. The cells were harvested and proteins were examined by western blot.

[4] = test system: MEK/ERK signaling pathway; test: Western blot of MEK/ERK phosphorylation in EV71-infected Vero cells; type: cell-based, African green monkey; details: EV71 H, MOI = 0.1; 24 h treatment
Source text: The activation of the MEK/ERK signaling pathway has been certified to play an essential role in EV71 life cycle and pathogenesis in various cell types. […] To learn whether or not 2d would still act through MEK/ERK pathway as its parent BBR does, the inhibition experiment of EV71 via this signaling pathway was done with 2d using BBR as the reference. […] We can conclude that compound 2d inhibited the replication of EV71 through down-regulating MEK/ERK signaling pathway.
as §3, with “The primary antibodies used in the experiment included β-actin, p-p44/p42 MAPK, p44/p42 MAPK, p-MEK, MEK, p-JNK, JNK, p-AKT, AKT, PI3KIII, LC3B, Beclin-1 (Cell Signaling Technology, Danvers, MA, USA), and EV71-VP1 (Abnova, Taibei, China). HRP-labeled secondary antibodies included goat anti-rabbit and anti-mouse HRP-labeled antibodies (Cell Signaling Technology).” left out

[5] = test system: EV71 SHZH98 strain (genotype C4); test: CPE inhibition assay for anti-EV71, SHZH98 strain; type: cell-based, enterovirus 71 (EV71); details: Enterovirus A, EV71; Vero cells; CPE; calculated on the organic part; n = 3; read-out: SHZH98 Strain IC50
Summary of the method: as §1

[6] = test system: EV71 BrCr strain (VR-1775, genotype A); test: CPE inhibition assay for anti-EV71, BrCr strain; type: cell-based, enterovirus 71 (EV71); details: Enterovirus A, EV71; Vero cells; CPE; calculated on the organic part; n = 3; read-out: BrCr Strain IC50
Summary of the method: as §1

[7] = test system: EV71-induced CPE; test: CPE assay with microscopy and crystal violet staining; type: cell-based, enterovirus 71 (EV71); details: 20 μM; Vero cells; better than that of BBR
Procedure: Furthermore, microscopy and crystal violet staining was used to further investigation the anti-EV71 effect of 2d with CPE (cytopathic effect) assay.
as §2
Figure 2 The anti-EV71 effect of compound 2d in Vero cells with BBR as a positive control. (A) 2d reduced the EV71-induced CPE. Cells were examined using a microscopy (×40); (B) 2d reduced the EV71-induced CPE. Cells were examined using crystal violet staining; (C) 2d reduced the expression of EV71 VP1 RNA by one-step qRT-PCR assay. ** p < 0.001 * p < 0.05; (D) 2d reduced the expression of EV71 VP1 protein by western blot assay.

**Q.** `COc1ccc2cc3[n+](cc2c1OCC(=O)OCc1ccccc1)CCc1cc2c(cc1-3)OCO2` [2d, 2,3-Methylenedioxy-9-benzyloxyformylmethylenoxy-10-methoxyprotoberberine chloride] was tested. Which IC50 [1] did it give?
**A.** 7.12 µM

**Q.** And the IC50 [2]?
**A.** 7.12 to 14.8 µM

**Q.** What about the AKT activation [3] of the same molecule?
**A.** activate AKT

**Q.** And the “LC3II (marker for autophagy)” value [3]?
**A.** decreased

**Q.** And the “expression of Beclin-1” value [3]?
**A.** could not affect the expression of Beclin-1

**Q.** And the “phosphorylation of JNK and PI3KIII proteins” value [3]?
**A.** inhibit the phosphorylation of JNK and PI3KIII proteins

**Q.** What about the “phosphorylation of MEK and ERK induced by EV71 infection” value [4] of the same molecule?
**A.** significantly inhibit the phosphorylation of both MEK and ERK

**Q.** And the IC50 [5]?
**A.** 14.8 µM

**Q.** What about the IC50 [6] of the same molecule?
**A.** 8.52 µM

**Q.** What about the “reduction of EV71-induced CPE” value [7] of the same molecule?
**A.** significantly reduce the EV71-induced CPE
